Experimental data: paper PMC9585939, “Unveiling a family of spiro-β-lactams with anti-HIV and antiplasmodial activity via phosphine-catalyzed [3+2] annulation of 6-alkylidene-penicillanates and allenoates” (Frontiers in Chemistry, 2022)
“Also recorded” adds a separate entry of the source.

How the values were obtained:
[1] = test system: HIV-1 SG3.1; assay: microbe, parasite or virus in culture; settings: for anti-HIV activity (in words) / Therapeutic index (CC50/IC50): HIV-1; for inhibition at 25 µg/mL / IC50 / IC90: Human immunodeficiency virus 1, TZM-bl; for inhibition at 25 µg/mL: read-out: MPI (%) 25 μg/mL; for Therapeutic index (CC50/IC50): CC50 in TZM-bl cells; for IC50 / IC90: 48 h; for IC50: read-out: IC50 HIV-1, TZM-bl cells, 48 h; for IC90: read-out: IC90 HIV-1
Text: The HIV-1 SG3.1 is a reference subtype B strain that uses the CXCR4 coreceptor. It was obtained by transfection of HEK293T cells with pSG3.1 plasmid using jetPRIME transfection reagent (Polyplus-transfection SA, Illkirch, France), according to the instructions of the manufacturer.
Briefly, TZM-bl cells were infected with 200 TCID50 of HIV-1 or HIV-2 in the presence of serial-fold dilutions of the compounds in the growth medium, supplemented with diethylaminoethyl-dextran (DEAE-dextran). After 48 h of infection, luciferase expression was quantified with Pierce Firefly Luc One-Step Glow Assay Kit (ThermoFisher Scientific, Rockford, United States), according to the instructions of the manufacturer. For each compound dilution, the assay was set up in triplicate wells. Virus controls, cell controls, and inhibitors controls (drugs with a known action against each virus) were employed.

[2] = Cellular viability assay (alamarBlue) in TZM-bl cells; type: cell-based; settings: human, 50% cytotoxic concentration
Description: Before the antiviral activity screening, all spirocyclopentene-β-lactams were assayed for their in vitro cytotoxic activity (CC50) in TZM-bl cells (Table 4).
TZM-bl cells (AIDS Research and Reference Reagent Program, National Institutes of Health, United States) were cultured in complete growth medium consisting of Dulbecco’s Minimal Essential Medium (DMEM) supplemented with 10% fetal bovine serum (FBS), 100 U/ml of penicillin–streptomycin (Gibco/Invitrogen, United States), 1 mM of sodium pyruvate (Gibco/Invitrogen, United States), 2 mM of L-glutamine (Gibco/Invitrogen, United States), and 1 mM of non-essential amino acids (Gibco/Invitrogen, United States). Cell cultures were maintained at 37°C in 5% CO2.
The in vitro cytotoxicity of test compounds was evaluated in TZM-bl cells using alamarBlue cell viability reagent (Life Technologies, United States), according to the instructions of the manufacturer. The cells were cultured in the presence and absence of serial-fold dilutions of the test compounds. Each dilution of each compound was performed in triplicate wells. Medium controls (only growth medium), cell controls (cells without test compound), and cytotoxicity controls (a compound that kills cells) were employed in each assay.

SMILES	anti-HIV activity (in words) [1]	inhibition at 25 µg/mL [1] [%]	melting point	CC50 [2] [µM]	Therapeutic index (CC50/IC50) [1]	IC50 [1] [µM]	IC90 [1] [µM]
CC1(C)SC2N(C(=O)C23CC=C(C(=O)Oc2ccccc2)C3C(=O)c2ccccc2)C1C(=O)OC(c1ccccc1)c1ccccc1 (stereo not drawn) [Compound 9a, (1′R,2′R)-Benzhydryl spiro[(2-benzoyl-3-phenoxycarbonylcyclopent-3-ene)-1′,6-penicillanate]]	lack of antiviral activity	0	> 137 °C (dec.)	215	–	–	–
CC(C)(C)c1ccc(OC(=O)C2=CCC3(C(=O)N4C(C(=O)OC(c5ccccc5)c5ccccc5)C(C)(C)SC43)C2C(=O)c2ccccc2)cc1 (stereo not shown) [Compound 9b, (1’R,2’R)-Benzhydryl spiro[(2-benzoyl-3-(4-tert-butylphenoxycarbonyl)cyclopent-3-ene)-1’,6-penicillanate]]	–	0	206.7 to 208.9 °C	54.7	–	–	–
COc1cccc(OC(=O)C2=CCC3(C(=O)N4C(C(=O)OC(c5ccccc5)c5ccccc5)C(C)(C)SC43)C2C(=O)c2ccccc2)c1 (stereo not shown) [Compound 9c, (1’R,2’R)-Benzhydryl spiro[(2-benzoyl-3-(3-methoxyphenoxycarbonyl)cyclopent-3-ene)-1’,6-penicillanate]]	–	0	67.8 to 69.7 °C	58.1	–	–	–
CC1(C)SC2N(C(=O)C23CC=C(C(=O)Oc2ccc4ccccc4c2)C3C(=O)c2ccccc2)C1C(=O)OC(c1ccccc1)c1ccccc1 (stereo not shown) [Compound 9d, (1’R,2’R)-Benzhydryl spiro[(2-benzoyl-3-(2-naphthoxycarbonyl)cyclopent-3-ene)-1’,6-penicillanate]]	–	54	–	38	–	–	–
CCCCCOC(=O)C1=CCC2(C(=O)N3C(C(=O)OC(c4ccccc4)c4ccccc4)C(C)(C)SC32)C1C(=O)c1ccccc1 (stereo not shown) [Compound 9e, (1’R,2’R)-Benzhydryl spiro[(2-benzoyl-3-pentoxycarbonylcyclopent-3-ene)-1’,6-penicillanate]]	–	44	–	60.3	–	–	–
CC(C)CCOC(=O)C1=CCC2(C(=O)N3C(C(=O)OC(c4ccccc4)c4ccccc4)C(C)(C)SC32)C1C(=O)c1ccccc1 (stereo not shown) [Compound 9f, (1’R,2’R)-Benzhydryl spiro[(2-benzoyl-3-isopentoxycarbonylcyclopent-3-ene)-1’,6-penicillanate]]	–	21	–	53.4	–	–	–
CC1(C)SC2N(C(=O)C23CC=C(C(=O)OC(c2ccccc2)c2ccccc2)C3C(=O)c2ccccc2)C1C(=O)OC(c1ccccc1)c1ccccc1 (stereo not shown) [Compound 9g, (1’R,2’R)-Benzhydryl spiro[(2-benzoyl-3-benzhydryloxycarbonylcyclopent-3-ene)-1’,6-penicillanate]]	–	0	83.4 to 85.2 °C	45.3	–	–	–
CC1(C)SC2N(C(=O)C23CC=C(C(=O)OCc2ccc([N+](=O)[O-])cc2)C3C(=O)c2ccccc2)C1C(=O)OC(c1ccccc1)c1ccccc1 (stereo not shown) [Compound 9h, (1’R,2’R)-Benzhydryl spiro[(2-benzoyl-3-(4-nitrobenzyloxycarbonyl)cyclopent-3-ene)-1’,6-penicillanate]]	inactive; also recorded: total loss of antiviral activity	0	81.2 to 83.1 °C	56	–	–	–
Cc1ccc(COC(=O)C2=CCC3(C(=O)N4C(C(=O)OC(c5ccccc5)c5ccccc5)C(C)(C)SC43)C2C(=O)c2ccccc2)cc1 (stereo not shown) [Compound 9j, (1’R,2’R)-Benzhydryl spiro[(2-benzoyl-3-(4-methylbenzyloxycarbonyl)cyclopent-3-ene)-1’,6-penicillanate]]	–	93	59 to 60.8 °C	60	674.49	0.089	0.209
CC1(C)SC2N(C(=O)C23CC=C(C(=O)OCc2ccc(Cl)cc2)C3C(=O)c2ccccc2)C1C(=O)OC(c1ccccc1)c1ccccc1 (stereo not shown) [Compound 9k, (1’R,2’R)-Benzhydryl spiro[(2-benzoyl-3-(4-chlorobenzyloxycarbonyl)cyclopent-3-ene)-1’,6-penicillanate]]	–	84	49.8 to 51.5 °C	54.1	148.11	0.366	–
CC1(C)SC2N(C(=O)C23CC=C(C(=O)OCc2ccc(F)cc2)C3C(=O)c2ccccc2)C1C(=O)OC(c1ccccc1)c1ccccc1 (stereo not shown) [Compound 9l, (1’R,2’R)-Benzhydryl spiro[(2-benzoyl-3-(4-fluorobenzyloxycarbonyl)cyclopent-3-ene)-1’,6-penicillanate]]	–	100	67.2 to 69.3 °C	55.8	502.97	0.111	0.221
C#CCOC(=O)C1=CCC2(C(=O)N3C(C(=O)OC(c4ccccc4)c4ccccc4)C(C)(C)SC32)C1C(=O)c1ccccc1 (stereo not shown) [Compound 9m, (1’R,2’R)-Benzhydryl spiro[(2-benzoyl-3-(prop-2-yn-1-yloxycarbonyl)cyclopent-3-ene)-1’,6-penicillanate]]	–	94	62.2 to 64.8 °C	60.1	296.11	0.203	0.437
CC(COC(=O)C1=CCC2(C(=O)N3C(C(=O)OC(c4ccccc4)c4ccccc4)C(C)(C)SC32)C1C(=O)c1ccccc1)c1ccccc1 (stereo not shown) [Compound 9o, (1’R,2’R)-Benzhydryl spiro[(2-benzoyl-3-(1-phenylpropan-2-yloxycarbonyl)cyclopent-3-ene)-1’,6-penicillanate]]	–	0	–	44.7	–	–	–
CC1(C)SC2N(C(=O)C23CC=C(C(=O)OCc2ccccc2)C3C(=O)c2ccc(Cl)cc2)C1C(=O)OC(c1ccccc1)c1ccccc1 (stereo not shown) [Compound 12b, (1’R,2’R)-Benzhydryl spiro[(2-(4-chlorobenzoyl)-3-benzyloxycarbonylcyclopent-3-ene)-1’,6-penicillanate]]	–	92	145.2 to 146.5 °C	56	888.73	0.063	0.104
CC1(C)SC2N(C(=O)C23CC=C(C(=O)OCc2ccccc2)C3C(=O)c2ccc([N+](=O)[O-])cc2)C1C(=O)OC(c1ccccc1)c1ccccc1 (stereo not shown) [Compound 12d, (1’R,2’R)-Benzhydryl spiro[(2-(4-nitrobenzoyl)-3-benzyloxycarbonylcyclopent-3-ene)-1’,6-penicillanate]]	–	80	122 to 123.7 °C	53	297.75	0.178	0.413
CC1(C)SC2N(C(=O)C23CC=C(C(=O)OCc2ccccc2)C3C(=O)c2ccc(C(F)(F)F)cc2)C1C(=O)OC(c1ccccc1)c1ccccc1 (stereo not shown) [Compound 12e, (1’R,2’R)-Benzhydryl spiro[(2-(4-trifluoromethylbenzoyl)-3-benzyloxycarbonylcyclopent-3-ene)-1’,6-penicillanate]]	–	76	134.1 to 135.5 °C	64.4	49.39	1.3	1.5
CC1(C)SC2N(C(=O)C23CC=C(C(=O)OCc2ccccc2)C3C(=O)c2cc(F)cc(F)c2)C1C(=O)OC(c1ccccc1)c1ccccc1 (stereo not shown) [Compound 12f, (1’R,2’R)-Benzhydryl spiro[(2-(3,5-difluorobenzoyl)-3-benzyloxycarbonylcyclopent-3-ene)-1’,6-penicillanate]]	–	88	69.5 to 71.5 °C	70.1	531.34	0.132	0.585
CC1(C)SC2N(C(=O)C23CC=C(C(=O)OCc2ccccc2)C3C(=O)c2ccc3ccccc3c2)C1C(=O)OC(c1ccccc1)c1ccccc1 (stereo not shown) [Compound 12h, (1’R,2’R)-Benzhydryl spiro[(2-naphthoyl-3-benzyloxycarbonylcyclopent-3-ene)-1’,6-penicillanate]]	–	0	81.5 to 83.5 °C	73.6	–	–	–
Cc1ccc(COC(=O)C2=CCC3(C(=O)N4C(C(=O)OC(c5ccccc5)c5ccccc5)C(C)(C)SC43)C2C(=O)c2ccc(F)cc2)cc1 (stereo not shown) [Compound 14b, (1’R,2’R)-Benzhydryl spiro[(2-(4-fluorobenzoyl)-3-(4-methylbenzyloxycarbonyl)cyclopent-3-ene)-1’,6-penicillanate]]	–	95	–	78.3	–	0.146	0.338
